Laboratory results from patent publication US20100210535A1, “[…] USE OF NE[…] AND ACTH 7-38 AND COMPOSITIONS THEREOF” (priority 2007, published 2010).
Where no end group is shown, it is not given here.

Experiments:
spleen cells = test: Th1/Th2 cytokine profiling assay (Ovalbumin-restimulated spleen cells, CBA kit); assay type: cell-based, Balb/c mice; conditions: 10 micrograms per ml; Ovalbumin restimulation; 72 hours
From the text: The Balb/c mice (originated in 1923, it is a popular strain and is used in many different research disciplines. Also classified as an inbred from the production of 20 or more successive brother-sister matings, the Balb/c mouse is albino and small in size) were immunized on Days 1, 15, and 29 with Ovalbumin (Ovalbumin is the main protein found in egg white, commonly used to stimulate an immunological reaction in test animals) in PBS (5 micrograms/injection). On day 50, spleens of the mice were harvested (3 weeks after last boost with Ovalbumin). Cells were cultured (2×10^5/well in triplicate) and incubated with culture medium or test peptides—10 micrograms per ml—for 30 min. Thereafter, additional Ovalbumin was added to the cells at 10 micrograms/ml for in vitro restimulation of the cells. 72 hours later, cell supernatants were harvested and assayed using the Becton Dickinson Mouse Th1/Th2 Cytokine CBA Kit.

[1] = system: hepatitis B virus (HBV) ayw strain; test: HBV experimental assay system, HepG2-2.2.15, secreted HBV DNA by TaqMan PCR; assay type: cell-based; conditions: 10 micrograms per ml, HepG2-2.2.15 cells, six days
HCMV strain AD169 = test: HCMV plaque formation assay in MRC-5 cells; assay type: cell-based; conditions: 10 micrograms per ml, 7-10 days
From the text: Ganciclovir was used as positive control.

[2] = system: Primary Human endothelial cells (HUVEC); test: Endothelial cell migration assay; assay type: cell-based; conditions: 10 micrograms per ml, 22 hours, combination peptide 1:peptide 2 0.95 mole:1.05 mole
Method: Thereafter, designated concentration of testing peptides—10 micrograms per ml—was added in duplicate wells.

HUVEC = test: Endothelial tube formation assay; assay type: cell-based, human; conditions: 10 micrograms per ml, 20 hours, combination peptide 1:peptide 2 1.10 mole:0.90 mole
Method: The endothelial tube formation assay is based on the ability of endothelial cells to form three-dimensional capillary-like tubular structures when cultured on a gel of basement membrane extract. The endothelial tube formation assay represents a powerful model for studying inhibition and induction of angiogenesis. Pre-labeled HUVEC with Calcein AM were seeded in a 96-well culture plate coated with extracellular metrix (Chemicon international Cat. ECM625) and treated with test peptides—10 micrograms per ml—in full growth medium. Positive control was vehicle only. The endothelial cells were allowed to form tubes foe 20 hours and were then examined under an inverted fluorescent microscope. Duplicate wells for each treatment were photographed and quantitatively analyzed for an average tubule length using image analysis software ImageProPlus. Raw data were expressed as average tubule lengths in pixels±standard deviation. Statistic p values were computed using the Student's t-test.

Substance | IFNγ spleen cells; TH1 response (% of control) (spleen cells) | IL-2 spleen cells (% of control) (spleen cells) | IL-4 spleen cells; TH2 response (% of control) (spleen cells) | IL-5 spleen cells; TH2 response (% of control) (spleen cells) | TNF-a spleen cells; TH1 response (% of control) (spleen cells) | inhibition of HBV replication as compared to the virus control infection [1] | inhibition of HCMV plaque formation as compared to the virus control experiment (HCMV strain AD169) | inhibition of the migration of human endothelial cells [2] [%] | inhibition of the tube formation of human endothelial cells (HUVEC)
Glu-Ile-Gly-Asp-Glu-Glu-Asn-Ser-Ala-Lys-Phe-Pro-Ile-NH2 (EIGDEENSAKFPI-NH2) [Peptide 1] | 149.4 % of control | 212.4 % of control | 163.3 % of control | 115.8 % of control | 155.5 % of control | no effect | 5.8% | 53 | –
Phe-Arg-Trp-Gly-Lys-Pro-Val-Gly-Lys-Lys-Arg-Arg-Pro-Val-Lys-Val-Tyr-Pro-Asn-Gly-Ala-Glu-Asp-Glu-Ser-Ala-Glu-Ala-Phe-Pro-Leu-Glu-OH (FRWGKPVGKKRRPVKVYPNGAEDESAEAFPLE-OH) [Peptide 2] | 113.7 % of control | 137.1 % of control | 0.0 % of control | 106.3 % of control | 138.0 % of control | 8.4% | does not inhibit | 41 | did not inhibit
